Source: US20080306248A1, “Conjugate of Biomacromolecule with Bioreductive and Preparative Method Thereof” (priority 2005, published 2008)
In brackets after ≈: the same amount, converted by molar mass.

Tests used:
SMMC-7721 = assay: MTT cytotoxicity assay, SMMC-7721 cells; format: cell-based
Method: (§1) Conjugate cytotoxicity was assessed using an MTT assay. Cells (SMMC-7721, L-02, etc.) were seeded at a density of 1×10^4 cells/well […] to the assay. At the start of the experiment the culture medium was removed and the conjugate (0-2 mg/lnl in complete medium) was added (100 ul). After 4 h, MTT (20 ul; 5 mg/ml in PBS) was added and the plates re-incubated for a further 5 h. the formazan crystals were dissolved in DMSO and the absorbance read at 550 nm using a microtitre plate reader. The results were expressed as viability(%) relative to a control containing no conjugate.

L-02 = assay: MTT cytotoxicity assay, L-02 cells; format: cell-based; conditions: concentration of MMC or conjugate up to 8 ugMMC/ml
Method: as §1

Method for Caco-2 cell monolayers: The transcellular transport of conjugate was evaluated using Caco-2 cell monolayers. Caco-2 cells were maintained in plastic culture flasks. These stock cells were subcultivated before reaching confluence. The medium consisted of Dulbecco's Modified Eagle's Medium supplemented with 10% fetal bovine serum, 1% nonessential amino acid, 2 mM L-glutamine and 100 IU/mL penicillin-10 ug/mL streptomycin. The monolayer cultures were grown in an atmosphere of 5% CO2-95% O2 at 37° C. The cells were given fresh growth medium every 2 days. When the Caco-2 cells had reached confluence, they were harvested with 0.25 mM trypsin and 0.2% EDTA (0.5-1 min at 37° C.), resuspended, and seeded into a new flask, Caco-2 cells were used between passages 45 and 60. For the transport study, Caco-2 cells were seeded at a cell density of 8×10^4 cells/cm^2 on 6-well (3-mm pores, 4.71-cm^2 growth area) Transwell™. The cell monolayers were fed a fresh growth medium every 2 days and were used at 16 to 21 days for the transport experiments. TEER was used to monitor the integrity of the monolayers. Monolayers with TEER above 350/cm^2 (after subtracting the back group value of the transwell) were used in the study.

| Molecule | IC50 (SMMC-7721; Homo sapiens, SMMC-7721, viability relative to control containing no conjugate) | viability of L-02 (L-02) | transcellular transport by caco-2 cells (transport fraction) (Caco-2 cell monolayers) | IC50 to SMMC-7721 (SMMC-7721; viability relative to control containing no conjugate) |
| --- | --- | --- | --- | --- |
| CO[C@@]12[C@H](COC(N)=O)C3=C(C(=O)C(C)=C(N)C3=O)N1C[C@@H]1N[C@@H]12 [MMC, mitomycinC, reference compound] | 1.6 µg/mL (≈ 4.79 µM) | unchanged |  |  |
| Fe-transferrin-MMC |  | unchanged | 20 % of total drug | 0.5 ug MMC/ml |
